Data from article PMC11269473, “Monoamine oxidase inhibition properties of 2,1-benzisoxazole derivatives” (Molecular Diversity, 2023).
“And” between values parts separate entries of the source, which are not always exact repeats. Equal entries are not always repeated. Where two headings read alike, the source gives them in different places.

Tests used:
recombinant human MAO-B = molecular target: T1, recombinant human MAO-B (Homo sapiens, UniProt P27338); test: MAO-B inhibition, IC50 determination with kynuramine as substrate (fluorescence of 4-hydroxyquinoline); type: biochemical; conditions: for SI (selectivity index): SI = IC50(MAO-A)/IC50(MAO-B); for IC50: recombinant human MAO-B, 50 µM kynuramine, mean ± SD of triplicate, NI = no inhibition observed at 100 µM
T1 construct: purchased Sigma-Aldrich; host or cells: insect cells (microsomes)
T1 sequence (P27338 1-520): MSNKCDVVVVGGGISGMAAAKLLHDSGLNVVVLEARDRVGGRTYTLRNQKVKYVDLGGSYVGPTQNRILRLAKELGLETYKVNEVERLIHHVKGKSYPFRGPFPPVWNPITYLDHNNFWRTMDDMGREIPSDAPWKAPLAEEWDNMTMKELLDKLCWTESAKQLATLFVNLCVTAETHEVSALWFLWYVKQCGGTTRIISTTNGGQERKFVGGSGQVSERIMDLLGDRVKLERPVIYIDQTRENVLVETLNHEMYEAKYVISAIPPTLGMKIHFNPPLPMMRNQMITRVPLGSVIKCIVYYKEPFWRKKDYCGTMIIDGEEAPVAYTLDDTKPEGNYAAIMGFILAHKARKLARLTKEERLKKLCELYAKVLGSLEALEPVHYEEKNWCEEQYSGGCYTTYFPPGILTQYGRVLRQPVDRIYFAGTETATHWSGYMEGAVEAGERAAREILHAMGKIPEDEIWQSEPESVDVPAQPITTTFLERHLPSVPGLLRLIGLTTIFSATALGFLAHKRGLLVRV
Experimental: (§1) The MAO inhibition properties of the 2,1-benzisoxazole derivatives were investigated using the commercially available recombinant human MAO-A and MAO-B enzymes with kynuramine serving as substrate. MAO oxidizes kynuramine to yield 4-hydroxyquinoline, which was measured by fluorescence spectrophotometry.
(§2) For the MAO inhibition studies, a Varian Cary Eclipse fluorescence spectrophotometer was employed. Microsomes from insect cells containing recombinant human MAO-A and MAO-B (5 mg protein/mL) and kynuramine dihydrobromide were obtained from Sigma-Aldrich.
IC50 values for the inhibition of MAO were measured as described previously. Microsomes from insect cells containing recombinant human MAO-A and MAO-B (5 mg protein/mL) served as enzyme sources (Sigma-Aldrich) while kynuramine was used as non-specific MAO substrate. The enzyme reactions (200 µL reactions prepared in 96-well microtiter plates) contained phosphate buffer (100 mM, pH 7.4), 50 µM kynuramine and the test inhibitors at concentrations of 0.003–100 µM. […] The concentration of 4-hydroxyquinoline, the product of kynuramine oxidation by MAO, was measured by fluorescence spectrophotometry (λex = 310 nm; λem = 400 nm). IC50 values were estimated from sigmoidal plots of enzyme catalytic rate versus the inhibitor concentration (log[I]) which were constructed with the Prism software package (GraphPad). IC50 values were estimated in triplicate determinations from these plots and are expressed as mean ± standard deviation (SD).

recombinant human MAO-A [1] = molecular target: T2, recombinant human MAO-A (Homo sapiens, UniProt P21397); test: MAO-A inhibition, IC50 determination with kynuramine as substrate (fluorescence of 4-hydroxyquinoline); type: biochemical; conditions: 50 µM kynuramine, mean ± SD of triplicate, NI = no inhibition observed at 100 µM
T2 construct: purchased Sigma-Aldrich; host or cells: insect cells (microsomes)
T2 sequence (P21397 1-527): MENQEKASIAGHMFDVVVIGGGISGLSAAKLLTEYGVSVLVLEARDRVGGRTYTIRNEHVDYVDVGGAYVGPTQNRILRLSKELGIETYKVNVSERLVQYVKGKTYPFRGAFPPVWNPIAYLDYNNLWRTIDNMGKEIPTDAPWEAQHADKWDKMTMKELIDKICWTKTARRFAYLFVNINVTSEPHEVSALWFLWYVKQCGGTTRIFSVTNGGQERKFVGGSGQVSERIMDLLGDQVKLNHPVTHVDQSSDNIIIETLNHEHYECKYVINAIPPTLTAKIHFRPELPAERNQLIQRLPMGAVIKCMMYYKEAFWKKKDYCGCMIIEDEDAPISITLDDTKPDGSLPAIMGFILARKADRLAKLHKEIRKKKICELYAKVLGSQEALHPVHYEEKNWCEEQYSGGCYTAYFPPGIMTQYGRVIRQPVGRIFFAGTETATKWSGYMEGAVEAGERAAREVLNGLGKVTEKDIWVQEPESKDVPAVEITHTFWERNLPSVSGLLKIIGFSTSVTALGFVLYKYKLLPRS
Experimental: as §1, §2
IC50 values for the inhibition of MAO were measured as described previously. Microsomes from insect cells containing recombinant human MAO-A and MAO-B (5 mg protein/mL) served as enzyme sources (Sigma-Aldrich) while kynuramine was used as non-specific MAO substrate. The enzyme reactions (200 µL reactions prepared in 96-well microtiter plates) contained phosphate buffer (100 mM, pH 7.4), 50 µM kynuramine and the test inhibitors at concentrations of 0.003–100 µM. […] The reactions were initiated with addition of MAO-A (0.0075 mg protein/mL) or MAO-B (0.015 mg protein/mL) and after 20 min of incubation at 37 °C, the reactions were terminated by the addition of 80 µL NaOH (2 N). The concentration of 4-hydroxyquinoline, the product of kynuramine oxidation by MAO, was measured by fluorescence spectrophotometry (λex = 310 nm; λem = 400 nm). IC50 values were estimated from sigmoidal plots of enzyme catalytic rate versus the inhibitor concentration (log[I]) which were constructed with the Prism software package (GraphPad). IC50 values were estimated in triplicate determinations from these plots and are expressed as mean ± standard deviation (SD).

recombinant human MAO-A [2] = molecular target: T2, recombinant human MAO-A; test: Lineweaver–Burk plots / mode of MAO-A inhibition and Ki; type: biochemical
Experimental: These two compounds represent potent MAO inhibitors among the study compounds. […] Each line of the Lineweaver–Burk plots was constructed with the kynuramine concentration ranging from 15 to 250 μM.
The insets are replots of the slopes of the Lineweaver–Burk plots versus inhibitor concentration. The Ki value equals the negative of the x-axis intercept when y = 0
IC50 values for the inhibition of MAO were measured as described previously. Microsomes from insect cells containing recombinant human MAO-A and MAO-B (5 mg protein/mL) served as enzyme sources (Sigma-Aldrich) while kynuramine was used as non-specific MAO substrate. The enzyme reactions (200 µL reactions prepared in 96-well microtiter plates) contained phosphate buffer (100 mM, pH 7.4), 50 µM kynuramine and the test inhibitors at concentrations of 0.003–100 µM. Stock solutions of the test inhibitors were dissolved in DMSO and added to the enzyme reactions to give a final DMSO concentration of 4% (v/v). The reactions were initiated with addition of MAO-A (0.0075 mg protein/mL) or MAO-B (0.015 mg protein/mL) and after 20 min of incubation at 37 °C, the reactions were terminated by the addition of 80 µL NaOH (2 N). The concentration of 4-hydroxyquinoline, the product of kynuramine oxidation by MAO, was measured by fluorescence spectrophotometry (λex = 310 nm; λem = 400 nm). IC50 values were estimated from sigmoidal plots of enzyme catalytic rate versus the inhibitor concentration (log[I]) which were constructed with the Prism software package (GraphPad). IC50 values were estimated in triplicate determinations from these plots and are expressed as mean ± standard deviation (SD).
For each line, the concentration of kynuramine ranged from 15–250 µM.

Compound | melting point | SI (selectivity index) (recombinant human MAO-B) | IC50 (recombinant human MAO-B) | IC50 (recombinant human MAO-A [1]) | mode of MAO-A inhibition (recombinant human MAO-A [2]; Lineweaver–Burk lines intersect on the y-axis) | Ki (recombinant human MAO-A [2]; global (shared) fitting of the inhibition data, read-out: Ki, MAO-A, global (shared) fitting to the Michaelis–Menten equation) | Ki (recombinant human MAO-A [2]; replot of slopes versus inhibitor concentration, Ki = −x when y = 0, kynuramine 15–250 µM, read-out: Ki, MAO-A, from replot of slopes of Lineweaver–Burk plots) | fold more potent MAO-B inhibition than homologues (recombinant human MAO-B; versus p-tolyl (3c), phenyl (3j), p-Br-phenyl (3m), p-Cl-phenyl (3n) and p-OCH3-phenyl (3o) homologues)
COc1ccc(-c2onc3ccc(I)cc23)cc1 [Compound 3a, 5-Iodo-3-(4-methoxyphenyl)benzo[c]isoxazole] | 112 to 114 °C | 6.4 | < 6.59 µM and 3.03 µM | 19.4 ± 2.58 µM |  |  |  | 
Clc1ccc(-c2onc3ccc(I)cc23)cc1 [Compound 3b, 3-(4-Chlorophenyl)-5-iodobenzo[c]isoxazole] | 185 to 187 °C | 12 | < 6.59 µM and 6.59 µM | 77.7 ± 5.97 µM |  |  |  | 
Cc1ccc(-c2onc3ccc(Cl)cc23)cc1 [Compound 3c, 5-Chloro-3-(p-tolyl)benzo[c]isoxazole] | 136 to 138 °C | 3.3 | 2.63 ± 0.178 µM | 8.76 ± 0.058 µM |  |  |  | 
C(#Cc1ccc2noc(-c3ccccc3)c2c1)c1ccccc1 [Compound 3d, 3-Phenyl-5-(phenylethynyl)benzo[c]isoxazole] | 143 to 144 °C | 9.0 | 7.92 ± 0.684 µM | 71.6 ± 3.08 µM |  |  |  | 
Cc1nc(-c2cc3noc(-c4ccccc4)c3cc2Cl)no1 [Compound 3e, 5-Chloro-6-(5-methyl-1,2,4-oxadiazol-3-yl)-3-phenylbenzo[c]isoxazole] | 171 to 172 °C | 2.5 | 3.55 ± 0.037 µM | 8.95 ± 0.581 µM |  |  |  | 
CC1(c2ccc3noc(-c4cccc(Cl)c4)c3c2)OCCO1 [Compound 3f, 3-(3-Chlorophenyl)-5-(2-methyl-1,3-dioxolan-2-yl)benzo[c]isoxazole] | 175 to 177 °C |  | 25.1 ± 2.41 µM | > 100 µM |  |  |  | 
Brc1ccc2noc(-c3ccccc3)c2c1 [Compound 3g, 5-Bromo-3-phenylbenzo[c]isoxazole] | 116 to 118 °C | 3.4 | 5.79 ± 0.013 µM | 19.5 ± 3.2 µM |  |  |  | 
Ic1ccc2noc(-c3ccccc3)c2c1 [Compound 3h, 5-Iodo-3-phenylbenzo[c]isoxazole] | 112 to 115 °C | 1.1 | < 16.3 µM and 16.3 µM | 17.7 ± 0.424 µM |  |  |  | 
Cc1ccc(-c2onc3ccc(I)cc23)cc1 [Compound 3i, 5-Iodo-3-(p-tolyl)benzo[c]isoxazole] | 109 to 110 °C | 13 | < 6.59 µM and 3.49 µM | 43.9 ± 11.3 µM |  |  |  | 
Clc1ccc2noc(-c3ccccc3)c2c1 [Compound 3j, 5-Chloro-3-phenylbenzo[c]isoxazole] |  |  | 4.43 ± 0.12 µM | 10.6 ± 0.049 µM |  |  |  | 
Clc1cc2noc(-c3ccccc3)c2cc1Cl [Compound 3k, 6-Dichloro-3-phenylbenzo[c]isoxazole] |  |  | 5.56 ± 0.73 µM | > 100 µM |  |  |  | 
c1ccc(-c2onc3ccc(C4OCCO4)cc23)cc1 [Compound 3l, 5-(1,3-Dioxolan-2-yl)-3-phenylbenzo[c]isoxazole] | 137 to 138 °C | 0.20 | 27.3 ± 2.16 µM | 5.35 ± 0.211 µM | competitive | 0.5 ± 0.024 µM | 0.46 µM | 
Clc1ccc2noc(-c3ccc(Br)cc3)c2c1 [Compound 3m, 3-(4-Bromophenyl)-5-chlorobenzo[c]isoxazole] | 230 to 232 °C | 71 | 1.18 ± 0.022 µM | 83.2 ± 33.3 µM |  |  |  | 
Clc1ccc(-c2onc3ccc(Cl)cc23)cc1 [Compound 3n, 5-Chloro-3-(4-chlorophenyl)benzo[c]isoxazole] | 229 to 232 °C | 39 | 2.07 ± 0.381 µM | 81.3 ± 28.7 µM |  |  |  | 
COc1ccc(-c2onc3ccc(Cl)cc23)cc1 [Compound 3o, 5-Chloro-3-(4-methoxyphenyl)benzo[c]isoxazole] | 174 °C | 3.6 | 2.34 ± 0.055 µM | 8.49 ± 0.017 µM |  |  |  | 
c1ccc(-c2onc3ccc(Oc4ccc5noc(-c6ccccc6)c5c4)cc23)cc1 [Compound 5, 5,5'-Oxybis(3-phenylbenzo[c]isoxazole)] | 190 to 192 °C | 0.33 | 10 ± 0.949 µM | 3.29 ± 0.254 µM |  |  |  | 
N#Cc1ccc(-c2onc3ccc(Cl)cc23)cc1 [Compound 7b, 4-(5-Chlorobenzo[c]isoxazol-3-yl)benzonitrile] | 236 to 237 °C | 622 | 0.098 ± 0.0036 µM | 61 ± 9.19 µM |  |  |  | at least 12 fold
Cc1nc(-c2cc3noc(-c4ccc(C#N)cc4)c3cc2Cl)no1 [Compound 7c, 4-(5-Chloro-6-(5-methyl-1,2,4-oxadiazol-3-yl)benzo[c]isoxazol-3-yl)benzonitrile] | 257 to 258 °C |  | 0.139 ± 0.044 µM | > 100 µM |  |  |  | 
COc1ccc2c(c1)[nH]c1c(C)nccc12 [Harmine, reference compound] |  |  | > 100 µM |  |  |  |  | 
